Measured values reported in patent publication EP2711366A1, “Cationic triphenylamine derivatives activable by visible and Infra Red light for inducing and imaging apoptosis in cancer cells” (Institut Curie, priority 2012, dated 2014).
Read-outs that look alike come from different tables or passages of the source. Numbered stars: 1 amine (or outer) side, 2 acyl side, 3 side chain; on linkers, the order of the positions; unused ones are H or OH. Bridge positions count the residues as written; N and C are the ends. Square brackets hold non-standard residues; d marks the D form. Peptide text beside a SMILES is read from it. I, II: the chains in the order shown. Actinocin(9to1) = Cc1c2oc3c(C)ccc(C(=O)[*:1])c3nc-2c(C(=O)[*:2])c(N)c1=O; NMeV = CN[C@H](C(=O)O)C(C)C; Sar = CNCC(=O)O

Experiments:
[1] = 532 or 665-nm line laser sources; cited from earlier work
living MCF-7 cells = experiment: One-photon confocal fluorescence microscopy, photo-induced nuclear translocation and membrane blebbing; type: cell-based; conditions: 2µM, 2 hours, confocal, λexc 458 nm (Fig. 5)
Method: One-photon epifluorescence and confocal images were obtained using a SP2 confocal microscope (Leica MicroSystem) equipped with an incubation chamber (37°C, CO2 5%). Excitation and emission filters for epifluorescence were 450-490 nm and 515-700 nm, respectively. A continuous laser line (458 nm) was used for excitation in the confocal mode.
The photo-induced nuclear translocation and membrane blebbing were next assessed using confocal fluorescence microscopy [λexc = 458 nm; emission slit settings: 560-720nm and 530-690nm for TP2Py and TP3Bzim, respectively] under experimental conditions similar to those described in experiment 1 for epifluorescence experiments. The corresponding transmission images illustrating the concomitant membrane blebbing are shown below the confocal fluorescence images. Living MCF7 cells were incubated with 2µM TP3Bzim or TP2Py for 2 hours before observation. As shown in Fig. 5A (TP2Py) and in Fig. 5B (TP3BZim), the results obtained with confocal imaging were similar to those obtained with epifluorescence imaging (experiment 1), with however, some discrepancies in the time courses of event appearance, most likely due to the power of the excitation source which is different between epifluorescence and confocal experiments (see below). […] Based on both criteria (re-localization of the fluorescence signal and the formation of blebs), the deduced fluences were 22 and 40 J/cm^2 for TP2Py and TP3Bzim, respectively. […]
The TP2Py compound at a concentration of 2 µM was first incubated with living MCF-7 cells for 2 hours and then observed with confocal microscope with varying illumination power of the laser source [λ=458 nm; emission slit setting: 560-720 nm]. […] For each condition, the fluorescence intensity in ROIs corresponding to the nucleus was plotted as a function of time (the initial time value, t = 0, represents the first observation) (FIG.7C). Using integration time based on tmax values, light dose values, determined from experiments performed at irradiance of 5.6 or 30 mW/cm^2, were consistent (27.6 and 27 J/cm^2 respectively). These values are in accordance with the above-mentioned value for TP2Py (fluence, 22 J/cm^2 in Fig. 5).
Living MCF-7 cells were treated with varying concentrations of TP2Py for two hours (2µM; 0.2µM and 0.02µM) and observed with a confocal microscope [λexc = 458nm; irradiance 30mW/cm^2, emission slit setting: 560-720nm.] (FIG 8A: 2µM; FIG 8B: 0.2µM; FIGBC: 0.02µM).

[2] = Dark toxicity (MTT assay, without illumination); type: cell-based; conditions: human; MCF-7 cells, tested in dark; read-out: TC50 (toxicity concentration 50%), dark toxicity
Method: (§1) Different experiments were conducted and described below: • MCF7 cells were treated with 2µM of TP2Py or TP3Bzim and exposed to illumination (Fig.9A); • HeLa cells were treated with 2µM of TP2Py or TP3Bzim and exposed to illumination (Fig.9B); • MCF7 cells were treated with TP2Py, 40 min illumination (black circles) or without illumination (white circles) (Fig.9C) • HeLa cells were treated with TP2Py [30 min illumination (black circles) or without illumination (white circles)] or TP3Bzim [15 min illumination (black triangles) or without illumination (white triangles)]
(§2) For each experiment, the source of excitation was a Mercury lamp (130W; 380-600nm) with an excitation filter centered at 452nm (± 45 nm), irradiance, 60mW/cm^2.
(§3) First, the experiment was calibrated by determining the time of illumination exposure which leads to the toxicity 50%, for a given concentration of TPA (2 µM) and for an irradiance of 60mW/cm^2. […] This characteristic time was then used for the plots shown in Fig. 9C and 9D which represent the cell viability as a function of TPA concentration (in HeLa and MCF-7 cells, respectively).

HeLa cells [3] = tested on: HeLa cells
Method: as §1, §2, §3

DNA = conditions: b156 attributes 634 nm to DNA-bound TP2Py in vitro (Allains et al. 2007); cited from earlier work
HeLa cells [4] = experiment: Cytophototoxicity by MTT assay under illumination; type: cell-based; conditions: irradiance 60mW/cm^2
Method: as §1, §2, §3

MCF-7 cells = experiment: FITC-conjugated Annexin V staining, flow cytometric analysis (apoptosis); type: cell-based; conditions: proapoptotic controls, no illumination; ActD 1µg/mL; CPT 10µM for 2.5 hours
Method: MCF-7 cells were plated in 12-well plates (2.10^5 cells/well) and incubated with 2µM of TP2Py for 2h at 37°C. Under specific conditions (see Fig. 12), cells were further incubated with NAC (1mM) for 30 min, Bapta-AM (20µM) for 3h, or CsA (10µM) for 1h at 37°C. After a time illumination of either 30 or 60 min at […] (Mercury lamp (130W; 380-600nm) + excitation filter centered at 452nm (± 45nm)), cells were gently scraped and pooled with medium floating cells. Cells were individualized in PBS-EDTA (10mM) and stained as described by the manufacturer (Roche, Germany). Briefly, the cell pellet was re-suspended in 500µl Annexin V-HEPES solution (10 mM HEPES-NaOH, pH 7.4, 140mM NaCl, 5mM CaCl2) and incubated on ice for 30 min in the dark. Cells were then washed in ice-cold HEPES buffer before analysis. Fluorescence signals of fluorescently labelled (FITC) Annexin V and TP2Py were measured by a FACSCalibur flow cytometer (Becton-Dickinson, Sunnyvale, CA, USA) using FL1 and FL2 detectors, respectively.
Different experiments are summarized below: • MCF-7 cells treated with 2µM TP2Py for 2 hours and then stained with FITC-conjugated Annexin V immediately (Fig.12A) without light exposure; • MCF-7 cells treated with 2µM TP2Py for 2 hours and then stained with FITC-conjugated Annexin V after a time illumination (Exc, 452 nm) of 30 min (Fig.12B); • MCF-7 cells treated with 2µM TP2Py for 2 hours and then stained with FITC-conjugated Annexin V after a time illumination (Exc, 452 nm) of 60 min (Fig.12C); • control MCF-7 cells treated with DMSO (1%) only and illuminated for 30 min before Annexin V staining (Fig.12D); • control MCF-7 cells treated with 1µg/mL actinomycin D (ActD), no illumination before Annexin V staining (Fig.12E); • control MCF-7 cells treated with camptothecin (CPT, 10µM)) (Fig.12F) for 2.5 hours, no illumination before Annexin V staining; • MCF-7 cells treated during 2 hours with 2µM TP2Py and 10µM cyclosporine A (CsA) and illuminated for 30 min before Annexin V staining (Fig.12G); • MCF-7 cells treated during 2 hours with 2µM TP2Py and 1 mM N-Acetyl cysteine (NAC) and illuminated for 30 min before Annexin V staining (Fig.12H); and • MCF-7 cells treated during 2 hours with 2µM TP2Py and 20µM Bapta-am (Fig.12I) and illuminated for 30 min before Annexin V staining.
The horizontal (FL1-H) and vertical (FL2-H) axes correspond to the fluorescence signal of Annexin V and TP2Py, respectively. The percentage of population with a high mean fluorescence signal is indicated in the corresponding quadrant (top right or bottom right in the presence or absence of TP2Py, respectively).

[5] = in water up to 10 µM; cited from earlier work
[6] = cited from earlier work
[7] = at 630 nm; cited from earlier work

## CN(C)c1ccc(C(=C2C=CC(=[N+](C)C)C=C2)c2ccc(N(C)C)cc2)cc1 [CV, crystal violet]
[1]
  total fluence or light dose: 1.7 J/cm^2

## CN(C)c1ccc2nc3ccc(=[N+](C)C)cc-3sc2c1 [MB, methylene blue]
[1]
  total fluence or light dose: 1.7 J/cm^2

## CC(=O)Oc1c(I)cc2c(c1I)Oc1c(cc(I)c(OC(C)=O)c1I)C21OC(=O)c2c(Cl)c(Cl)c(Cl)c(Cl)c21 [RBA, Rose Bengal acetate]
[1]
  total fluence or light dose: 1.6 J/cm^2

## Cn1c(/C=C/c2ccc(N(c3ccc(/C=C/c4n(C)c5ccccc5[n+]4C)cc3)c3ccc(/C=C/c4n(C)c5ccccc5[n+]4C)cc3)cc2)[n+](C)c2ccccc21 [TP3Bzim]
Living MCF-7 cells
  deduced fluence (re-localization of the fluorescence signal and formation of blebs): 40 J/cm^2
[2]
  CC50: > 30 µM
HeLa cells [3]
  dark toxicity (concentration below which negligible): ≥ 50 µM
DNA
  λmax,emission: 572 nm
HeLa cells [4]; Mercury lamp, filter 452nm
  illumination time required for the same TC50 under illumination: 15 min
HeLa cells [4]
  corresponding light dose: 54 J/cm^2

## Cn1c(/C=C/c2ccc(N(c3ccccc3)c3ccc(/C=C/c4n(C)c5ccccc5[n+]4C)cc3)cc2)[n+](C)c2ccccc21 [Tp2Bzim]
[2]
  CC50: 10 µM

## C[n+]1ccccc1/C=C/c1ccc(N(c2ccccc2)c2ccc(/C=C/c3cccc[n+]3C)cc2)cc1 [Tp2Pyo]
[2]
  CC50: 20 µM

## Cc1c2oc3c(C)ccc(C(=O)N[C@@H]4C(=O)N[C@H](C(C)C)C(=O)N5CCC[C@H]5C(=O)N(C)CC(=O)N(C)[C@@H](C(C)C)C(=O)O[C@@H]4C)c3nc-2c(C(=O)N[C@@H]2C(=O)N[C@H](C(C)C)C(=O)N3CCC[C@H]3C(=O)N(C)CC(=O)N(C)[C@@H](C(C)C)C(=O)O[C@@H]2C)c(N)c1=O [actinomycin D, reference compound] (I: T[dV]P[Sar][NMeV] / II: T[dV]P[Sar][NMeV]; ester I:1-I:C, II:1-II:C; linker I:N-II:N via Actinocin(9to1))
MCF-7 cells
  HMFI population (Annexin V positive, TP2Py negative): 34%

## CC[C@@]1(O)C(=O)OCc2c1cc1n(c2=O)Cc2cc3ccccc3nc2-1 [camptothecin, reference compound]
MCF-7 cells
  HMFI population (Annexin V positive, TP2Py negative): 37%

## C=Cc1c(C)c2cc3nc(c(CC(=O)O)c4[nH]c(cc5nc(cc1[nH]2)C(C)=C5CC)c(C)c4C(=O)O)[C@@H](CCC(=O)O)[C@@H]3C [chlorin e6]
[5]
  quantum yield: 0.008-0.01
[6]; at 800 nm
  two-photon cross-section: 29 GM

## Photofrin®
[7]
  extinction coefficient: 3200 M⁻¹ cm⁻¹
[6]; at 800 nm
  two-photon cross-section: 10 GM
[6]; at 900 nm
  two-photon cross-section: 5 GM
